One series deals with TFEB. In words: High content screen measuring TFEB nuclear accumulation (TFEB nuclear/cytosol ratio) in BEAS-2B cells stably expressing TFEB-EGFP. It is filed as cell-based, human. The note with it: 18 hours incubation. Put shortly:
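BEAS-2B cells stably expressing TFEB-EGFP (~2300–2500 per well) pre-incubated 8 hours, then exposed to serially diluted compounds (DMEM low glucose, 2% FBS) for 18 hours, PFA-fixed and DAPI-stained. Imaged nuclear (DAPI mask) vs cytosolic (expanded mask) TFEB-GFP; activity = minimal concentration raising nuclear/cytosol ratio by 25%.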

In a further series the test system is BEAS-2B cells. Nature of the series: Toxicity: compound concentration needed to induce greater than 50 percent of cell loss. In kind it is cell-based, human. The note with it: 18 hours incubation. Put shortly: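 BEAS-2B cells stably expressing TFEB-EGFP treated with serial compound dilutions for 18 h, then PFA-fixed, DAPI-stained and imaged. Toxicity scored as the concentration causing >50% cell loss, binned as ≥25 μM, <25 and >1 μM, or ≤1 μM ("+++").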

Take `c1ccc2c(Nc3ccc4nc(C5CC5)sc4c3)nc(-c3ccncc3)nc2c1` [Compound 91]: in the series with TFEB, the “efficacy (minimal compound concentration needed to increase TFEB nuclear/cytosol ratio by 25%)” value was “+++ (“+++” equals ≤1 μM)”. In the series on BEAS-2B cells, the “toxicity (compound concentration needed to induce greater than 50 percent of cell loss)” value is recorded as “+ (cell loss of greater than 50 percent at a concentration that equals or is greater than 25 μM was represented as)”.
Take `FC(F)c1nc2ccc(Nc3nc(-c4ccncc4)nc4ccccc34)cc2s1` [Compound 92]: the “efficacy (minimal compound concentration needed to increase TFEB nuclear/cytosol ratio by 25%)” value with TFEB was “++ (“++” equals between ≤25 μM and >1 μM)”. The “toxicity (compound concentration needed to induce greater than 50 percent of cell loss)” value in the series with BEAS-2B cells is given as “+ (cell loss of greater than 50 percent at a concentration that equals or is greater than 25 μM was represented as)”.
For `CC(C)(C)c1nc2ccc(Nc3nc(-c4ccncc4)nc4ccccc34)cc2s1` [Compound 93], the “efficacy (minimal compound concentration needed to increase TFEB nuclear/cytosol ratio by 25%)” value in the series with TFEB is “+ (“+” equals >25 μM)”. For the same compound, the “toxicity (compound concentration needed to induce greater than 50 percent of cell loss)” value with BEAS-2B cells is reported as “+ (cell loss of greater than 50 percent at a concentration that equals or is greater than 25 μM was represented as)”.
In the case of `CC(C)c1nc2ccc(Nc3nc(-c4ccncc4)nc4ccccc34)cc2s1` [Compound 94], in the series with TFEB, the “efficacy (minimal compound concentration needed to increase TFEB nuclear/cytosol ratio by 25%)” value is “+++ (“+++” equals ≤1 μM)”. In the series on BEAS-2B cells, the “toxicity (compound concentration needed to induce greater than 50 percent of cell loss)” value was “+ (cell loss of greater than 50 percent at a concentration that equals or is greater than 25 μM was represented as)”.
Consider `Cc1nc2cc(Nc3nc(-c4ccncc4)nc4ccccc34)ccc2s1` [Compound 95], for which the “efficacy (minimal compound concentration needed to increase TFEB nuclear/cytosol ratio by 25%)” value in the series with TFEB is “+ (“+” equals >25 μM)”. In addition, the “toxicity (compound concentration needed to induce greater than 50 percent of cell loss)” value in the series on BEAS-2B cells is on record as “+ (cell loss of greater than 50 percent at a concentration that equals or is greater than 25 μM was represented as)”.
Take `FC(F)(F)c1nc2ccc(Nc3nc(-c4ccncc4)nc4ccccc34)cc2o1` [Compound 96]: the “efficacy (minimal compound concentration needed to increase TFEB nuclear/cytosol ratio by 25%)” value in the series on TFEB was “+ (“+” equals >25 μM)”. For the same compound, the “toxicity (compound concentration needed to induce greater than 50 percent of cell loss)” value in the series on BEAS-2B cells is listed as “+ (cell loss of greater than 50 percent at a concentration that equals or is greater than 25 μM was represented as)”.
In the case of `c1ccc2c(Nc3cccc4[nH]ccc34)nc(-c3ccncc3)nc2c1` [Compound 97], the “efficacy (minimal compound concentration needed to increase TFEB nuclear/cytosol ratio by 25%)” value with TFEB is on record as “+++ (“+++” equals ≤1 μM)”. For the same compound, the “toxicity (compound concentration needed to induce greater than 50 percent of cell loss)” value in the series with BEAS-2B cells is on record as “+ (cell loss of greater than 50 percent at a concentration that equals or is greater than 25 μM was represented as)”.
With `c1cc(Nc2nc(-c3ccncc3)nc3ccccc23)c2[nH]ccc2c1` [Compound 98], in the series on TFEB, the “efficacy (minimal compound concentration needed to increase TFEB nuclear/cytosol ratio by 25%)” value is “+++ (“+++” equals ≤1 μM)”. Further, in the series with BEAS-2B cells, the “toxicity (compound concentration needed to induce greater than 50 percent of cell loss)” value is given as “+ (cell loss of greater than 50 percent at a concentration that equals or is greater than 25 μM was represented as)”.
The like results for `c1ccc2c(Nc3cccc4[nH]ncc34)nc(-c3ccncc3)nc2c1` [Compound 99] were, in that order, “+++ (“+++” equals ≤1 μM)” and “+ (cell loss of greater than 50 percent at a concentration that equals or is greater than 25 μM was represented as)”.
The like results for `c1cc(Nc2nc(-c3ccncc3)nc3ccccc23)c2[nH]ncc2c1` [Compound 100] were, in that order, “+ (“+” equals >25 μM)” and “+ (cell loss of greater than 50 percent at a concentration that equals or is greater than 25 μM was represented as)”.
The like results for `c1ccc2c(Nc3cccc4[nH]nnc34)nc(-c3ccncc3)nc2c1` [Compound 101] were, in that order, “+ (“+” equals >25 μM)” and “+ (cell loss of greater than 50 percent at a concentration that equals or is greater than 25 μM was represented as)”.
Regarding `c1ccc2c(Nc3ccc4ncncc4c3)nc(-c3ccncc3)nc2c1` [Compound 102], the “efficacy (minimal compound concentration needed to increase TFEB nuclear/cytosol ratio by 25%)” value with TFEB is “+++ (“+++” equals ≤1 μM)”. In the series with BEAS-2B cells, the “toxicity (compound concentration needed to induce greater than 50 percent of cell loss)” value is “+ (cell loss of greater than 50 percent at a concentration that equals or is greater than 25 μM was represented as)”.
Consider `c1ccc2c(Nc3ccc4nccnc4c3)nc(-c3ccncc3)nc2c1` [Compound 103], for which the “efficacy (minimal compound concentration needed to increase TFEB nuclear/cytosol ratio by 25%)” value in the series with TFEB is given as “+++ (“+++” equals ≤1 μM)”. Also, in the series on BEAS-2B cells, the “toxicity (compound concentration needed to induce greater than 50 percent of cell loss)” value is given as “+ (cell loss of greater than 50 percent at a concentration that equals or is greater than 25 μM was represented as)”.
On to `c1ccc2c(Nc3ccc4[nH]ccc4c3)nc(-c3cc[nH]c3)nc2c1` [Compound 104], for which, in the series on TFEB, the “efficacy (minimal compound concentration needed to increase TFEB nuclear/cytosol ratio by 25%)” value is “+++ (“+++” equals ≤1 μM)”. Further, the “toxicity (compound concentration needed to induce greater than 50 percent of cell loss)” value with BEAS-2B cells is “+ (cell loss of greater than 50 percent at a concentration that equals or is greater than 25 μM was represented as)”.
On to `c1cnc2ccc(Nc3nc(-c4cncs4)nc4ccccc34)cc2c1` [Compound 106], for which the “efficacy (minimal compound concentration needed to increase TFEB nuclear/cytosol ratio by 25%)” value with TFEB is reported as “+ (“+” equals >25 μM)”. Further, the “toxicity (compound concentration needed to induce greater than 50 percent of cell loss)” value in the series with BEAS-2B cells is given as “+ (cell loss of greater than 50 percent at a concentration that equals or is greater than 25 μM was represented as)”.
For `c1ccc2c(Nc3ccc4ncsc4c3)nc(-c3cncs3)nc2c1` [Compound 107] the same measures were “+ (“+” equals >25 μM)” and “+ (cell loss of greater than 50 percent at a concentration that equals or is greater than 25 μM was represented as)”.
For `Fc1cccc2c(Nc3ccc4[nH]ccc4c3)nc(-c3ccncc3)nc12` [Compound 108] the same measures were “+++ (“+++” equals ≤1 μM)” and “+ (cell loss of greater than 50 percent at a concentration that equals or is greater than 25 μM was represented as)”.
For `COc1cccc2nc(-c3ccncc3)nc(Nc3ccc4[nH]ccc4c3)c12` [Compound 109] the same measures were “+++ (“+++” equals ≤1 μM)” and “+ (cell loss of greater than 50 percent at a concentration that equals or is greater than 25 μM was represented as)”.
Turning to `Fc1ccc2nc(-c3ccncc3)nc(Nc3ccc4[nH]ccc4c3)c2c1` [Compound 110], in the series with TFEB, the “efficacy (minimal compound concentration needed to increase TFEB nuclear/cytosol ratio by 25%)” value is “+++ (“+++” equals ≤1 μM)”. Also, in the series with BEAS-2B cells, the “toxicity (compound concentration needed to induce greater than 50 percent of cell loss)” value is “+ (cell loss of greater than 50 percent at a concentration that equals or is greater than 25 μM was represented as)”.
The like results for `Fc1cccc2nc(-c3ccncc3)nc(Nc3ccc4[nH]ccc4c3)c12` [Compound 111] were, in that order, “+ (“+” equals >25 μM)” and “+ (cell loss of greater than 50 percent at a concentration that equals or is greater than 25 μM was represented as)”.
The like results for `Fc1ccc2c(Nc3ccc4[nH]ccc4c3)nc(-c3ccncc3)nc2c1` [Compound 112] were, in that order, “+++ (“+++” equals ≤1 μM)” and “+ (cell loss of greater than 50 percent at a concentration that equals or is greater than 25 μM was represented as)”.
With `COc1ccc2nc(-c3ccncc3)nc(Nc3ccc4[nH]ccc4c3)c2c1` [Compound 113], the “efficacy (minimal compound concentration needed to increase TFEB nuclear/cytosol ratio by 25%)” value in the series with TFEB was “+++ (“+++” equals ≤1 μM)”. Also, in the series on BEAS-2B cells, the “toxicity (compound concentration needed to induce greater than 50 percent of cell loss)” value was “++ (cell loss of greater than 50 percent at a concentration less than 25 μM and greater than 1 μM was represented as)”.
As to `COc1ccc2c(Nc3ccc4[nH]ccc4c3)nc(-c3ccncc3)nc2c1` [Compound 114], the “efficacy (minimal compound concentration needed to increase TFEB nuclear/cytosol ratio by 25%)” value in the series on TFEB is “+++ (“+++” equals ≤1 μM)”. Further, in the series on BEAS-2B cells, the “toxicity (compound concentration needed to induce greater than 50 percent of cell loss)” value is “++ (cell loss of greater than 50 percent at a concentration less than 25 μM and greater than 1 μM was represented as)”.
For `Cc1ccc2nc(-c3ccncc3)nc(Nc3ccc4[nH]ccc4c3)c2c1` [Compound 116], the “efficacy (minimal compound concentration needed to increase TFEB nuclear/cytosol ratio by 25%)” value in the series with TFEB is reported as “+++ (“+++” equals ≤1 μM)”. For the same compound, the “toxicity (compound concentration needed to induce greater than 50 percent of cell loss)” value with BEAS-2B cells is listed as “+ (cell loss of greater than 50 percent at a concentration that equals or is greater than 25 μM was represented as)”.
The like results for `Cc1cccc2c(Nc3ccc4[nH]ccc4c3)nc(-c3ccncc3)nc12` [Compound 117] were, in that order, “+++ (“+++” equals ≤1 μM)” and “+ (cell loss of greater than 50 percent at a concentration that equals or is greater than 25 μM was represented as)”.
In the case of `Cc1nc2ccc(Nc3nc(-c4ccncc4)nc4ccncc34)cc2s1` [Compound 118], the “efficacy (minimal compound concentration needed to increase TFEB nuclear/cytosol ratio by 25%)” value in the series with TFEB is “++ (“++” equals between ≤25 μM and >1 μM)”. The “toxicity (compound concentration needed to induce greater than 50 percent of cell loss)” value in the series on BEAS-2B cells is recorded as “+ (cell loss of greater than 50 percent at a concentration that equals or is greater than 25 μM was represented as)”.
In the case of `CCc1nc2ccc(Nc3nc(-c4ccncc4)nc4ccncc34)cc2s1` [Compound 119], the “efficacy (minimal compound concentration needed to increase TFEB nuclear/cytosol ratio by 25%)” value in the series on TFEB is “+ (“+” equals >25 μM)”. Moreover, the “toxicity (compound concentration needed to induce greater than 50 percent of cell loss)” value in the series on BEAS-2B cells is “+ (cell loss of greater than 50 percent at a concentration that equals or is greater than 25 μM was represented as)”.
